The results in this text go back to patent US8377923B2, “Triazole derivative or salt thereof” (Astellas Pharma Inc., priority 2008, dated 2013).

Series [1] has as its target T1, human recombinant 11β-HSD1 (Homo sapiens, UniProt P28845).
T1 construct: made in house
The experiment in a line: Measuring test for human 11β-HSD1 inhibitory activity (HTRF cortisol detection). It counts as biochemical. To be noted: human recombinant 11β-HSD1, 200 nM cortisone, 40 μM NADPH, pH 6.6, room temperature 1 h. As for the experimental part:
(§1) Test Method 1: Measuring Test for Human 11β-HSD1 and 11β-HSD2 Inhibitory Activities
The procedure for measuring 11β-HSD1-inhibitory action was as follows. In this connection, the enzyme reaction and measurement were carried out using a 384-well plate. The enzyme was prepared in accordance with a document (Walker E. A. et al., Journal of Biological Chemistry, 2001, vol. 276, p. 21343-21350). The reaction was carried out by adding the compound to be tested with various concentrations to a reaction liquid consisting of 10 mM phosphate buffer (pH 6.6), 200 nM cortisone, 40 μM reduced nicotinamide adenine dinucleotide phosphate (NADPH) and human recombinant 11β-HSD1, and then incubating the same at room temperature for one hour (10 μl/well). The compound to be tested was prepared by dissolving in dimethyl sulfoxide (DMSO) to a DMSO concentration of 1% in the reaction liquid. After the enzyme reaction was completed, the enzyme inhibitory action was measured by detecting cortisol using a homogeneous time-resolved fluorescence method (HTRF). Each of the XL-665-labeled cortisol containing 400 μM carbenoxolone and cryptate-labeled cortisol antibody (CIS bio international Co., Ltd.) was added in 5 μl/well portions and incubated at room temperature for 2 hours, and then the fluorescence intensity was measured using a fluorophotometer (trade name: Discovery, Perkin Elmer Inc.), and the enzyme inhibitory action was calculated from the fluorescence intensity ratio at two wavelengths (665 nm/620 nm).
(§2) The measured result was calculated by averaging the values of 3 wells of the same condition. The ratio when DMSO was added instead of the compound to be tested was regarded as 0% and the ratio when 11β-HSD1 or 11β-HSD2 was not added was regarded as 100%, thereby calculating 50% inhibition concentration of the compound to be tested as IC50 of the compound inhibitory action.
Background: In TR-FRET formats the signal depends on donor and acceptor labels being close together.

For series [2], the target named is T2, human recombinant 11β-HSD2 (Homo sapiens, UniProt P80365).
T2 sequence (P80365 1-405): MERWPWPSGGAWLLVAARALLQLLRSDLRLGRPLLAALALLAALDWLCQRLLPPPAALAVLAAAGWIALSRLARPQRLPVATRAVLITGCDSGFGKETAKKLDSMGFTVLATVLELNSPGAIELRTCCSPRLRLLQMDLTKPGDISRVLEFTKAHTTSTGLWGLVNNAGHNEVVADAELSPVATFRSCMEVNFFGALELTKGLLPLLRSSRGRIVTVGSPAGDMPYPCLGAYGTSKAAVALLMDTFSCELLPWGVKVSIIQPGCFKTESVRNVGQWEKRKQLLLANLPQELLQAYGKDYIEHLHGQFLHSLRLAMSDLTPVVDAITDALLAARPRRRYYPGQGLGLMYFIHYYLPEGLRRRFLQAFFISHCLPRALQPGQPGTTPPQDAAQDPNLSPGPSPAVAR
The series is described as follows: Measuring test for human 11β-HSD2 inhibitory activity (HTRF cortisol detection). Type of series: biochemical. The conditions noted are these: human recombinant 11β-HSD2, 200 nM cortisol, 200 μM NAD, pH 8.0, 37° C. 2 h. As for the experimental part:
as §1
Measurement of the 11β-HSD2 inhibitory activity was carried out in the same manner as in the 11β-HSD1 inhibitory activity measurement, except for the enzyme reaction conditions. The enzyme reaction was carried out by adding the compound to be tested with various concentrations to a reaction liquid consisting of 40 mM Tris-HCl buffer (pH 8.0), 200 nM cortisol, 200 μM nicotinamide adenine dinucleotide (NAD) and human recombinant 11β-HSD2, and then incubating the same at 37° C. for 2 hours (10 μl/well).
as §2

A further series deals with male ddY mice. The experiment in a line: Scopolamine-induced impairment of spontaneous alternation behavior test (Y-maze). Type of series: in vivo, mouse. The conditions noted are these: oral, scopolamine 0.5 mg/kg i.p., Y-maze 8 minutes. The protocol:
Test Method 5: Scopolamine-Induced Impairment of Spontaneous Alternation Behavior Test
The compound to be tested was orally administered to male ddY mice of 5 to 7 weeks of age and scopolamine was intraperitoneally administered at 0.5 mg/kg after 10 minutes. After more 20 minutes, the animals were put in a Y-maze having arms of equivalent lengths into three directions and were allowed to freely search for 8 minutes. In this time, spontaneous alternation behavior to the arm (consecutive approach three times to different arms) was counted and a spontaneous alternation rate (spontaneous alternation behavior÷(approach number−2)×100) was calculated to evaluate pharmaceutical efficacy.

The test system of a further series is ob/ob mice. The experiment in a line: Ob/ob mouse blood-glucose lowering test. Type of series: in vivo. To be noted: bid, oral, 14 days, male ob/ob mice, 12 hours after final administration. The protocol: Test Method 2: Ob/Ob Mouse Blood-Glucose Lowering Test
A compound liquid was prepared using 6% 2-hydroxypropyl-β-cyclodextrin as a solvent. Using 7 weeks-old male ob/ob mice (blood-glucose level of 300 mg/dL or more), blood-glucose levels were measured under non-fasting conditions and then the mice were divided into groups so that the blood-glucose levels became uniform among the groups. The compound to be tested was orally administered twice per day repeatedly for 14 days (3 or 10 mg/kg, bid) and a basal blood-glucose level was measured 12 hours after final administration (n=6 to 10). Similarly, the compound to be tested was orally administered twice per day repeatedly for […] (3 or 10 mg/kg, bid) and a blood glucose at fasting was measured under fasting conditions 12 hours after final administration. The blood-glucose level was measured by carrying out colorimetric determination of the amount of glucose (mg/dl) in heparin blood plasma obtained by collecting blood in a heparin-coated glass capillary and subsequently centrifuging the same.

Series [3] concerns CYP3A (human CYP3A gene promoter, via PXR). The experiment in a line: Human CYP3A enzyme inducibility test (PXR/CYP3A promoter luciferase reporter in HepG2). Type of series: cell-based. The conditions noted are these: HepG2 cells, 16 hours after addition of the drug. The protocol: Test Method 6: Human CYP3A Enzyme Inducibility Test
3E+6 (n) Human hepatoma-derived cell lines, HepG2, were seeded on a 10 cm collagen-coated dish. Human PXR expression vectors, luciferase reporter vector in which a human CYP3A gene promoter region is inserted, and renilla expression vector as a control were transiently introduced 6 hours after cell seeding. The entire cells were further seeded on 384-well plates 16 hours after introduction, and a drug dissolved in DMSO was added thereto 6 hours after seeding. Luciferase activity of the reporter gene and control gene were measured 16 hours after addition of the drug, a value corrected by a control was regarded as an active value, and the value obtained by dividing by an activity value in which no drug was added was calculated as a fold induction.
A general note: Reporter assays use an easily measured gene product as a stand-in for the process of interest.

Where a name gives a salt, the structure may show the parent alone.

T1 sequence (P28845 whole entry): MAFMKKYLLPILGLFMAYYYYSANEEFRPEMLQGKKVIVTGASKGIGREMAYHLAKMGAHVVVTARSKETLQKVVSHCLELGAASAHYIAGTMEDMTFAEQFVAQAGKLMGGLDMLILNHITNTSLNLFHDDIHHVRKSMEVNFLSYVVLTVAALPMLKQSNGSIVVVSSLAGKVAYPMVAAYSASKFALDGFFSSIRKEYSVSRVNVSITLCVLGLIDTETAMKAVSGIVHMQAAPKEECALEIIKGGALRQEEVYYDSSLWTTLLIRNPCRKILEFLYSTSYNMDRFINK

As a reminder, the IC50 is the point on the concentration scale where inhibition reaches its midpoint. Turning to `Cn1c(-c2ccc(F)cc2Cl)nnc1C(C)(C)Oc1c(F)cc(F)cc1F` [Example 65, 3-(2-chloro-4-fluorophenyl)-4-methyl-5-[1-methyl-1-(2,4,6-trifluorophenoxy)ethyl]-4H-1,2,4-triazole monohydrochloride], the IC50 in series [1] was 0.0053 µM; in series [2], more than 3 µM. Also, the “Minimal effective dose for spontaneous alternation rate” value (shortened to “Minimal effective dose”) in the series on male ddY mice is recorded as 0.01 mg/kg.

Turning to `CCn1c(-c2ccc(C(N)=O)cc2)nnc1C(C)(C)Oc1c(F)cc(Cl)cc1F` [Example 509], the IC50 is 0.021 µM in series [1] and more than 10 µM in series [2]. Besides, in the series with male ddY mice, the “Minimal effective dose” value amounted to 0.01 mg/kg.

For `CC(C)(Oc1ccc(F)cc1F)c1nnc(-c2ccc(C(N)=O)cc2F)n1C1CC1` [Example 355], the IC50 in series [1] was 0.027 µM; in series [2], more than 10 µM.

Regarding `Cn1c(-c2ccccc2C(F)(F)F)nnc1C(C)(C)Oc1ccc(C(F)(F)F)cc1Cl` [Example 204], in the series on ob/ob mice (10 mg/kg), the “Basal blood-glucose lowering activity (%)” value is 29% (10 mg/kg). Also, the IC50 in series [1] was 0.12 µM; in series [2], more than 10 µM.

As for `Cn1c(-c2cc(Cl)ccc2Cl)nnc1C(C)(C)Oc1c(F)cc(F)cc1F` [Example 374], the IC50 in series [1] was 0.05 µM; in series [2] it was more than 30 µM.

Take `C[C@H](Oc1ccc(C(N)=O)cc1Br)c1nnc(-c2ccccc2C(F)(F)F)n1C` [Example 127]: the IC50 is 0.0087 µM in series [1] and more than 3 µM in series [2].

With `CCn1c(-c2ccc3c(c2)CNC3=O)nnc1C(C)(C)Oc1c(F)cc(F)cc1F` [Example 518], the results for the IC50 in series [1] and in series [2] were 0.008 µM and more than 3 µM, respectively.

Turning to `Cn1cc(-c2nnc(C(C)(C)Oc3c(F)cc(F)cc3F)n2C2CC2)c(Cl)n1` [Example 545], the IC50 in series [1] is 0.073 µM; in series [2], more than 10 µM.

As for `Cn1c(-c2ccc(C(N)=O)cc2F)nnc1C(C)(C)Oc1c(F)cc(Cl)cc1F` [Example 186], in the series on ob/ob mice (3 mg/kg), the “Basal blood-glucose lowering activity (%)” value is on record as 23% (3 mg/kg). For the same molecule, the IC50 in series [1] was 0.0033 µM; in series [2] it was more than 3 µM. In the series on male ddY mice, the “Minimal effective dose” value is given as 0.03 mg/kg.

On to `Cn1c(-c2sc(N)nc2C(F)(F)F)nnc1C(C)(C)Oc1c(F)cc(Cl)cc1F` [Example 587], for which the half-inhibitory concentration (IC50) in series [1] is 0.013 µM; in series [2], more than 3 µM.

With `CC(C)n1c(-c2ccc(C(N)=O)cc2)nnc1C(C)(C)Oc1c(F)cccc1F` [Example 616], the IC50 in series [1] was 0.02 µM; in series [2], more than 10 µM.

`Cn1c(-c2ccccc2C(F)(F)F)nnc1C(C)(C)Oc1ccc(Br)cn1` [Example 148]: the IC50 is 0.0046 µM in series [1] and more than 3 µM in series [2]. Moreover, in the series on male ddY mice, the “Minimal effective dose” value is 0.03 mg/kg.

Take `Cn1c(-c2ccc(F)c3ccccc23)nnc1C(C)(C)Oc1c(F)cc(F)cc1F` [Example 373]: the IC50 was 0.1 µM in series [1] and more than 100 µM in series [2].

For `CCn1c(N2CCc3[nH]ncc3C2)nnc1C(C)(C)Oc1c(F)cc(F)cc1F` [Example 87, 5-{4-ethyl-5-[1-methyl-1-(2,4,6-trifluorophenoxy)ethyl]-4H-1,2,4-triazol-3-yl}-4,5,6,7-tetrahydro-1H-pyrazolo[4,3-c]pyridine dihydrochloride], the results for the IC50 in series [1] and in series [2] were 0.013 µM and more than 10 µM, respectively.

For `Cn1c(-c2ccncc2C(F)(F)F)nnc1C(C)(C)Oc1c(F)cc(Cl)cc1F` [Example 544], the IC50 in series [1] is 0.015 µM; in series [2], more than 10 µM.

In the case of `Cn1c(-c2ccccc2C(F)(F)F)nnc1C(C)(C)Oc1ccc(Cl)cc1-c1nnco1` [Example 69, 2-[5-chloro-2-(1-methyl-1-{4-methyl-5-[2-(trifluoromethyl)phenyl]-4H-1,2,4-triazol-3-yl}ethoxy)phenyl]-1,3,4-oxadiazole], the “Basal blood-glucose lowering activity (%)” value in the series on ob/ob mice (10 mg/kg) is listed as 32% (10 mg/kg). Further, the results for the IC50 in series [1] and in series [2] were 0.0055 µM and more than 3 µM, respectively.

Usually fold induction stands for the signal under treatment as a multiple of the control signal. The low end stands for a weak induction, the high end for a strong induction. `Cn1c(-c2ccc(C(N)=O)cc2Cl)nnc1C(C)(C)Oc1c(F)cc(F)cc1F` [Example 175]: the “Basal blood-glucose lowering activity (%)” value in the series with ob/ob mice (3 mg/kg) was 20% (3 mg/kg). Moreover, the results for the IC50 in series [1] and in series [2] were 0.003 µM and more than 3 µM, respectively. In series [3], this molecule displayed a fold induction at 16 h, 3 µM of 1.24.

`CC(C)n1c(-c2ccc(C(N)=O)cc2)nnc1C(C)(C)Oc1c(F)cc(F)cc1F` [Example 531]: the IC50 is 0.05 µM in series [1] and more than 10 µM in series [2].

With `Cn1c(-c2ccc(F)cc2Br)nnc1C(C)(C)Oc1ccc(Cl)cc1` [Example 215], the IC50 in series [1] was 0.012 µM; in series [2], more than 10 µM. For the same molecule, the “Minimal effective dose” value in the series with male ddY mice came to 0.01 mg/kg.

With `Cn1c(-c2ccc(C(N)=O)cc2Cl)nnc1C(C)(C)Oc1c(F)cc(Cl)cc1F` [Example 185], the values for the IC50 in series [1] and in series [2] were 0.0029 µM and more than 3 µM, respectively.

Turning to `CC(C)(Oc1cc(F)c(F)cc1F)c1nnc(-c2ccc(C(N)=O)cc2F)n1C1CC1` [Example 525], the figures for the IC50 in series [1] and in series [2] were 0.029 µM and more than 10 µM, respectively.

Turning to `CC(C)n1c(-c2ccc(C(N)=O)cc2)nnc1C(C)(C)Oc1c(F)cc(Cl)cc1F` [Example 535], the IC50 in series [1] was 0.054 µM; in series [2], more than 10 µM. In the series with male ddY mice, the “Minimal effective dose” value is reported as 0.01 mg/kg.

Take `CC(C)(Oc1c(F)cc(Cl)cc1F)c1nnc(-c2cc3c(cc2F)C(=O)NC3)n1C1CC1` [Example 580]: the IC50 in series [1] is 0.01 µM; in series [2], more than 3 µM.

For `CCn1c(-c2ccc3cn[nH]c3c2)nnc1C(C)(C)Oc1c(F)cc(Cl)cc1F` [Example 83, 6-{5-[1-(4-chloro-2,6-difluorophenoxy)-1-methylethyl]-4-ethyl-4H-1,2,4-triazol-3-yl}-1H-indazole], the values for the IC50 in series [1] and in series [2] were 0.023 µM and more than 10 µM, respectively.

With `Cn1c(-c2ccccc2C(F)(F)F)nnc1C(C)(C)Oc1ccc(Cl)cc1` [Example 64, 3-[1-(4-chlorophenoxy)-1-methylethyl]-4-methyl-5-[2-(trifluoromethyl)phenyl]-4H-1,2,4-triazole monohydrochloride], the IC50 in series [1] was 0.003 µM; in series [2] it was more than 3 µM. In addition, in the series on male ddY mice, the “Minimal effective dose” value is listed as 0.001 mg/kg.
